Laboratory results reported in ChEMBL document CHEMBL1201862, “PubChem BioAssay data set” (2004).
Active and inactive are the calls of the source.

What was measured:
[1] = target: T1, Low molecular weight phosphotyrosine protein phosphatase (Homo sapiens, UniProt P24666); format: functional; conditions: read-out: IC50_Mean;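 further: Dose-response confirmation assay measuring inhibition of LMPTP enzyme activity by fluorescence intensity read-out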
T1 sequence (P24666 whole entry): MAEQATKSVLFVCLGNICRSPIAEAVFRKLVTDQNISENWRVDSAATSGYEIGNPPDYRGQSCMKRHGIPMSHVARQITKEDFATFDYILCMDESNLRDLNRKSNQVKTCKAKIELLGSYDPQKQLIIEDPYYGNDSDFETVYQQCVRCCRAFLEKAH

[2] = target: T1, Low molecular weight phosphotyrosine protein phosphatase; test: inhibition of human LMPTP enzyme activity – biochemical, absorbance, pNPP substrate, LMPTP-A isoform, set 2, orthogonal assay, dose response (AID 743308); format: functional
[3] = target: T1, Low molecular weight phosphotyrosine protein phosphatase; test: inhibition of LMPTP-A enzymatic activity – biochemical, OMFP substrate, fluorescence intensity, set 2, dose response (AID 743307); format: functional
[4] = HIV-1 Vif–A3G interaction blockers – biochemical, TR-FRET, GST-Vif 1-94, biotin-A3G peptide, dose response retest, primary screen (AID 1117319); format: functional;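 further: TR-FRET signal of purified GST-Vif binding a biotinylated A3G peptide; inhibitors lower the FRET signal by blocking Vif and A3G binding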
[5] = target: T2, Methionyl-tRNA synthetase, putative (Trypanosoma brucei brucei, UniProt Q38C91); format: functional, Trypanosoma brucei brucei strain 927/4 GUTat10.1
T2 sequence (Q38C91 whole entry): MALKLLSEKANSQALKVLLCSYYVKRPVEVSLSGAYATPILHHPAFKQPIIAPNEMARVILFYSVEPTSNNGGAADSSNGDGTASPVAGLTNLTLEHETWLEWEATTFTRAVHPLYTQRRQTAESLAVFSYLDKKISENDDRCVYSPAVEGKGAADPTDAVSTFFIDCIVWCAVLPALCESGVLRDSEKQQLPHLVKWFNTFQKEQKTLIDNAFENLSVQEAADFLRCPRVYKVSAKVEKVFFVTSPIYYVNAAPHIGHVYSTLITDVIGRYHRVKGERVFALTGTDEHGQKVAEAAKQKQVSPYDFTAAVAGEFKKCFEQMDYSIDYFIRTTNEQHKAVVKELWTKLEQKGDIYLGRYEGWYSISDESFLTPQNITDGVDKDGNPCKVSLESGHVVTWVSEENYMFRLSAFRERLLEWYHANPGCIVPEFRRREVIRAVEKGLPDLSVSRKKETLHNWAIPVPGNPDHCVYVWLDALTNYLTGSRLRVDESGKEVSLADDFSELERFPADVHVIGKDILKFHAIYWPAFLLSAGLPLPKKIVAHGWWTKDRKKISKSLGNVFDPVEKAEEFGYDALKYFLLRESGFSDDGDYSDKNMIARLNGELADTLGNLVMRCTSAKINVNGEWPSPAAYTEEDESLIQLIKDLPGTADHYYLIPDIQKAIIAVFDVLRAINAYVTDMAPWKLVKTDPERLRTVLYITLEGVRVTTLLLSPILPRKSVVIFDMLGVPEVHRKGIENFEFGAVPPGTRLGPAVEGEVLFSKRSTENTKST

[6] = target: T2, Methionyl-tRNA synthetase, putative; format: functional, Trypanosoma brucei brucei strain 927/4 GUTat10.1; remark: listed apart in the source
[7] = Counterscreen for inhibitors of Trypanosoma brucei methionyl tRNA synthetase (MetRS): Luminescence-based cell-based high throughput dose response assay to identify compounds that are cytotoxic to Jurkat human T lymphocyte cells.; format: functional
[8] = Late stage counterscreen for inhibitors of Trypanosoma brucei methionyl tRNA synthetase (MetRS): Luminescence-based cell-based high throughput dose response assay to identify compounds that are cytotoxic to Jurkat human T lymphocyte cells.; format: functional
[9] = inhibition of Env-driven cell fusion – HIV entry, plate reader, dry powder, dose response (AID 687023); format: functional, cell-based
[10] = viability loss in CEM21 cells – cell-based, plate reader, dry powder, cytotoxicity control, dose response (AID 687026); format: functional
[11] = luciferase signal loss, tTA control fusion, HeLa F-luc tTA cells, dry powder, counter-screen for HIV Env fusion inhibitor project, dose response (AID 687021); format: functional, cell-based
[12] = target: Glutathione-S-transferase (Schistosoma japonicum, UniProt Q26513); test: GST-antibody interaction or FRET quenching – biochemical, TR-FRET, artefact control for Vif-APOBEC3G degradation inhibitor project, dose response (AID 1117362); format: functional
[13] = general mammalian cell viability loss – inhibitor set, cherry-pick, set 2, cytotoxicity control for miR-122 modulator project, dose response (AID 720697); format: functional, cell-based
[14] = activation of miR-122 Renilla sensor silencing – cell-based, Huh7 psiCHECK-miR122, Renilla luciferase, cherry-picked, dose response (AID 651956); format: functional;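 further: huh7 hepatoma cells stably carrying a psiCHECK-2 miR-122 sensor plasmid; renilla luciferase signal reporting endogenous miR-122 activity after 48 h compound exposure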
[15] = reduced cellular PGC1a acetyl-lysine signal – cell-based, cherry-picked samples, dose response (AID 720514); format: functional;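 further: potency may reflect raised or lowered acetylation signal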
[16] = general mammalian cell viability loss – activator set, cherry-pick, cytotoxicity control for miR-122 modulator project, dose response (AID 720690); format: functional, cell-based;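 further: HEK293T human cells scored for general mammalian cytotoxicity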
[17] = inhibitors of non-replicating M. tuberculosis, dose response, luciferase, dry powder (AID 651619); format: functional; conditions: Mycobacterium tuberculosis
[18] = inhibitors of non-replicating M. tuberculosis, dose response, luciferase, dry powder (AID 651620); format: functional; conditions: Mycobacterium tuberculosis
[19] = Late-stage results from the probe development effort to identify antagonists of arginine vasopressin receptor 1a (AVPR1a): fluorescence-based cell-based dose response OXTR inhibition counterscreen assay.; format: functional
[20] = Late-stage results from the probe development effort to identify antagonists of arginine vasopressin receptor 1a (AVPR1a): fluorescence-based cell-based dose response AVPR1a inhibition assay.; format: functional
Vasopressin V1b receptor = Vasopressin V1b receptor (Homo sapiens, UniProt P47901); test: Late-stage results from the probe development effort to identify antagonists of arginine vasopressin receptor 1a (AVPR1a): fluorescence-based cell-based dose response AVPR1b inhibition counterscreen assay.; format: functional
Vasopressin V2 receptor = Vasopressin V2 receptor (Homo sapiens, UniProt P30518); test: Late-stage results from the probe development effort to identify antagonists of arginine vasopressin receptor 1a (AVPR1a): fluorescence-based cell-based dose response AVPR2 inhibition counterscreen assay.; format: functional
[21] = NIH-3T3 fibroblast cytotoxicity, dose response, cytotoxicity control, cell-based, fluorescence, Alamar Blue, secondary assay (AID 2327); format: functional;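 further: NIH-3T3 mouse fibroblasts cultured with fluconazole at 8 µg/mL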
[22] = target: T3, Mannose-6-phosphate isomerase (Homo sapiens, UniProt P34949); test: MPI inhibition at elevated mannose 6-phosphate – biochemical, fluorescence intensity, high mannose 6-phosphate, primary screen (AID 1220)
T3 sequence (P34949 whole entry): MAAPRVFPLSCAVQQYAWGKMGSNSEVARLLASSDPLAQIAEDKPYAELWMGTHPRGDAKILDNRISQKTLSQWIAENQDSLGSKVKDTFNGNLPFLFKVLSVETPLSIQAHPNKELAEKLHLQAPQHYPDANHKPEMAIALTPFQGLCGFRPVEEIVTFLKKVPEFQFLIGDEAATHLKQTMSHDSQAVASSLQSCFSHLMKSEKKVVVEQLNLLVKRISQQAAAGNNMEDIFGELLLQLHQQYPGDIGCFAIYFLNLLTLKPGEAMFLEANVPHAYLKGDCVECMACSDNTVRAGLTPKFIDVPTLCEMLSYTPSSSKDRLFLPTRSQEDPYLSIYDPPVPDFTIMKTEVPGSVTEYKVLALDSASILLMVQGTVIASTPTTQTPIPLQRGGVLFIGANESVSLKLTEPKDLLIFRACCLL

[23] = viability loss in THP-1 monocytes – THP-1 cells, cytotoxicity control for Vif-APOBEC3G degradation inhibitor project, dose response (AID 1117359); format: functional; conditions: THP-1
[24] = target: RNA-editing ligase 1, mitochondrial (Trypanosoma brucei brucei, UniProt P86926); test: inhibition of trypanosome RNA editing ligase – biochemical, fluorescence, Trypanosoma brucei, dose response (AID 1117295); format: functional
Genome polyprotein = Genome polyprotein (dengue virus type 2, UniProt P29990); test: flavivirus cap methylation enzyme inhibition – biochemical, confirmation dose response, primary screen (AID 588689); format: functional
[25] = target: Glucose-6-phosphate 1-dehydrogenase (Homo sapiens, UniProt P11413); test: inhibition of Homo sapiens G6PD, dose series – biochemical, fluorescence, selectivity assay for P. falciparum G6PD inhibitor project, dose response (AID 504792); format: functional
Protein Tat = target: T4, Protein Tat (Human immunodeficiency virus type 1 group M subtype B (isolate HXB2)(HIV-1), UniProt P04608); format: functional;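 further: tat binding to TAR RNA read out by fluorescence polarization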
T4 sequence (P04608 whole entry): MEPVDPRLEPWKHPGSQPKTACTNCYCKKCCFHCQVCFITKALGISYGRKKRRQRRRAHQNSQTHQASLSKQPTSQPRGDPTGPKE

[26] = fluconazole-exposed Candida albicans growth modulators – fluorescence, retest, confirmation (AID 2467); format: functional, cell-based
Leucine aminopeptidase = target: T5, Leucine aminopeptidase (Plasmodium falciparum 3D7, UniProt Q8IL11); test: P. falciparum M17LAP inhibitors, primary screen, biochemical, fluorogenic H-Leu-NHMec substrate, 1536-well (AID 1619); format: functional
T5 sequence (Q8IL11 whole entry): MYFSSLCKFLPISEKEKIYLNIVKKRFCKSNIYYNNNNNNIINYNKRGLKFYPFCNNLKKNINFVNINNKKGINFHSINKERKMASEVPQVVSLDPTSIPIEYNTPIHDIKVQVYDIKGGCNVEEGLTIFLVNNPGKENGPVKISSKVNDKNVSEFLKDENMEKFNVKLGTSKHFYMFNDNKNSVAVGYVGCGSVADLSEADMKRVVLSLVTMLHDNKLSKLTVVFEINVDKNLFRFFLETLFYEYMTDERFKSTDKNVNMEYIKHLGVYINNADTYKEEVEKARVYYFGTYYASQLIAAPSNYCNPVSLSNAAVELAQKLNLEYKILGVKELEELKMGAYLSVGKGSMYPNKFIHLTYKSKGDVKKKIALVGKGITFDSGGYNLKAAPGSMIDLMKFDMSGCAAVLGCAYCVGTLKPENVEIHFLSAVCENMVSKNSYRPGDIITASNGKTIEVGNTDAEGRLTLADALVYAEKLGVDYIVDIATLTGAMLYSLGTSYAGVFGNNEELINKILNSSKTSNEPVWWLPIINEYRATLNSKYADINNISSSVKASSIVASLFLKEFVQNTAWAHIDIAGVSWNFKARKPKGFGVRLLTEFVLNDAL

Vero = test: viability of Vero cells under compound – cytotoxicity control for flavivirus capping enzyme inhibitors (AID 588742); format: functional; conditions: Chlorocebus sabaeus
[27] = Dd2 parasite growth inhibition in erythrocytes – SYBR Green, dry powder samples, set 9, dose response (AID 1159568); format: functional, cell-based
[28] = target: Metabotropic glutamate receptor 7 (Homo sapiens, UniProt Q14831); test: potentiation of glutamate EC20 at mGlu7 – cell-based, calcium mobilization, Galpha15, dose response (AID 743384); format: functional
[29] = viability loss in MITF-independent A375 cells – cell-based, CellTiter-Glo luminescence, dry powder, set 2, counter-screen for MITF inhibitor project, dose response (AID 624489); format: functional; conditions: A-375;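 further: actives are compounds lowering A375 viability meaning general cytotoxicity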
[30] = cytotoxicity in MITF-independent A375 cells – cell-based, CellTiter-Glo luminescence, dry powder, set 4, counter-screen for MITF inhibitor project, dose response (AID 624364); format: functional; conditions: A-375;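 further: A375 melanoma cells are MITF independent so this is a counter screen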

Sequence of Glucose-6-phosphate 1-dehydrogenase (P11413 whole entry): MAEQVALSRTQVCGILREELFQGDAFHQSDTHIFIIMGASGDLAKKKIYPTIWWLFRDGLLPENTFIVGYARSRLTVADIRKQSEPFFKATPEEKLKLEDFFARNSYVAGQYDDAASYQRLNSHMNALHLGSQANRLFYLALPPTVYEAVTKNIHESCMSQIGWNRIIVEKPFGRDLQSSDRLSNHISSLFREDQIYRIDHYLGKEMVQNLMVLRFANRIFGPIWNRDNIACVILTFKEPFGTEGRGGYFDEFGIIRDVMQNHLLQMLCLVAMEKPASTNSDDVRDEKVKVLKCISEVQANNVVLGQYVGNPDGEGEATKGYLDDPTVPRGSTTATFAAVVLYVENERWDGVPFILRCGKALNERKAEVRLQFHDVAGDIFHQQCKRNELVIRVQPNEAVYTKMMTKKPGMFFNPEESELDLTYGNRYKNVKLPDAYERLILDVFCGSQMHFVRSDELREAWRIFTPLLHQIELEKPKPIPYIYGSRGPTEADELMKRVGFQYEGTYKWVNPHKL
Sequence of Genome polyprotein (P29990 2492-3391 limits assumed): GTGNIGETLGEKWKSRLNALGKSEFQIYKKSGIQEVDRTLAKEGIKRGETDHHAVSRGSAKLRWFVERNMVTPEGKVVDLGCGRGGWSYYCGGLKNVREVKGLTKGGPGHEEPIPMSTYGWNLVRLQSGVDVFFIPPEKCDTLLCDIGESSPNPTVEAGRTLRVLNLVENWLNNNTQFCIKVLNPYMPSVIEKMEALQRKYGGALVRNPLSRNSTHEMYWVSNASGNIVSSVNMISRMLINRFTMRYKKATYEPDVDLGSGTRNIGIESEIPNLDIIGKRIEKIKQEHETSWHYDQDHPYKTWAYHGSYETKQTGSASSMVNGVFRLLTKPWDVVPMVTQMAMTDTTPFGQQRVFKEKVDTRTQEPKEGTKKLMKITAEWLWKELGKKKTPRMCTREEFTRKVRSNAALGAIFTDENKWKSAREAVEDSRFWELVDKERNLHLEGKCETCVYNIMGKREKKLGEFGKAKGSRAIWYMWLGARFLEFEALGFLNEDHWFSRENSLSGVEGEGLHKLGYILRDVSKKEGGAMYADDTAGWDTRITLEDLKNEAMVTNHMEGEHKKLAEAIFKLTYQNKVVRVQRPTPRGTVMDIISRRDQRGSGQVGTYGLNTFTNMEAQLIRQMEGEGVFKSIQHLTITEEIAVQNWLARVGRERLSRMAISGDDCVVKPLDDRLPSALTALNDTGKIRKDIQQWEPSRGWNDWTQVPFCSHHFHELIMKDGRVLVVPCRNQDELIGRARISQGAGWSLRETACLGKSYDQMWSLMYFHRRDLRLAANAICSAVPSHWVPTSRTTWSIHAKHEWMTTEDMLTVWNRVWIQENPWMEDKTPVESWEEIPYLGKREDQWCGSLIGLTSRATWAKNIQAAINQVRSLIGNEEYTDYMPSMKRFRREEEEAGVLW
Sequence of RNA-editing ligase 1, mitochondrial (P86926 whole entry): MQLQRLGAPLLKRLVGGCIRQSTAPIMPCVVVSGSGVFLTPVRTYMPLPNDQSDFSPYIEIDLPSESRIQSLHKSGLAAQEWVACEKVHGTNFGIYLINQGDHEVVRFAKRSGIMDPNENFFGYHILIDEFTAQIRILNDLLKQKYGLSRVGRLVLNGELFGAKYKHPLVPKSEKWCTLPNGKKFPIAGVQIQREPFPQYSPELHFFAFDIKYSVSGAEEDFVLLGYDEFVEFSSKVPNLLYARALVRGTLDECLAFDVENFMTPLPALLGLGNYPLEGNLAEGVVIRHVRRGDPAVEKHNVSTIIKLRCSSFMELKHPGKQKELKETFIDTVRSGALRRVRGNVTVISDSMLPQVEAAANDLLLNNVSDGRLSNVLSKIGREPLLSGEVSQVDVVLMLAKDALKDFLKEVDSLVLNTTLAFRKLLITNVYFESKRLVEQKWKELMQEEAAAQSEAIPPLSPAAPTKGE
Sequence of Glutathione-S-transferase (Q26513 whole entry): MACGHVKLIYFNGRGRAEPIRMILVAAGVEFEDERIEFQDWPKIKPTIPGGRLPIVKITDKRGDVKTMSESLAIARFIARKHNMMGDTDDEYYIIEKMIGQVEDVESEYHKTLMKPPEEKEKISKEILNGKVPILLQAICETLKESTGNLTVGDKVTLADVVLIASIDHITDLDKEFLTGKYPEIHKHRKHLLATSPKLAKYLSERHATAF
Sequence of Metabotropic glutamate receptor 7 (Q14831 whole entry): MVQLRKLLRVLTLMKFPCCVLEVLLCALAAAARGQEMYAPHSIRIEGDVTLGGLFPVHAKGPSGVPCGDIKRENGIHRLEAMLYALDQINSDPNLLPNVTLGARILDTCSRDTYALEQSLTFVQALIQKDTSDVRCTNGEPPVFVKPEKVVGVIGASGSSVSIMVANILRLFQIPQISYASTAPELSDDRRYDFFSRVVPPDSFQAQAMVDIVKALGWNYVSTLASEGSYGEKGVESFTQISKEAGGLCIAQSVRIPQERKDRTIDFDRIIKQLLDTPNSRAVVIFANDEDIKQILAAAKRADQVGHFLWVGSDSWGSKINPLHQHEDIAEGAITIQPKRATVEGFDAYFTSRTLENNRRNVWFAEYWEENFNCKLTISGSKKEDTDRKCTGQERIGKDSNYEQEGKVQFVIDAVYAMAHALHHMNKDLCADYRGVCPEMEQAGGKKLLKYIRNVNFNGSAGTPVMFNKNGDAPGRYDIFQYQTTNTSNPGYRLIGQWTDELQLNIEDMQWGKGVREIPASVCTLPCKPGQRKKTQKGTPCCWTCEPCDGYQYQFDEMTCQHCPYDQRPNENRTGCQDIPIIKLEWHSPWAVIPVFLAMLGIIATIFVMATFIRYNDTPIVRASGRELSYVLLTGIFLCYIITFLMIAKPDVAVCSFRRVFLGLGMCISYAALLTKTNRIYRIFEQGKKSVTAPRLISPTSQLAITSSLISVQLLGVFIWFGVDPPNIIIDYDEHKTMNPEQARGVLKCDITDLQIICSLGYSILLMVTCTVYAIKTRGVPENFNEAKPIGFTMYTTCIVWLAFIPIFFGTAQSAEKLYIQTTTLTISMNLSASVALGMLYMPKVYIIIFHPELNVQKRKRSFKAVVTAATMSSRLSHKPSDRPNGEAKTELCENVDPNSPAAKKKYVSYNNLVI
Sequence of Vasopressin V2 receptor (P30518 whole entry): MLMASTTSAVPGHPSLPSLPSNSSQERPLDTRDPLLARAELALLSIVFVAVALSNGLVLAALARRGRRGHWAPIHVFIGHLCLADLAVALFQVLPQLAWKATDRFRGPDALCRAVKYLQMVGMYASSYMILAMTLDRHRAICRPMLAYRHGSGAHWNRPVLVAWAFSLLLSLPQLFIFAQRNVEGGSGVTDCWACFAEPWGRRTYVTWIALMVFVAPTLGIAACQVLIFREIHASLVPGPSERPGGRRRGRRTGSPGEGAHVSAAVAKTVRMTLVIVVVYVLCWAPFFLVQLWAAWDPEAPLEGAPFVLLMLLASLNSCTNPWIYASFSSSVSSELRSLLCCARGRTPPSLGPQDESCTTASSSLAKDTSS
Sequence of Vasopressin V1b receptor (P47901 whole entry): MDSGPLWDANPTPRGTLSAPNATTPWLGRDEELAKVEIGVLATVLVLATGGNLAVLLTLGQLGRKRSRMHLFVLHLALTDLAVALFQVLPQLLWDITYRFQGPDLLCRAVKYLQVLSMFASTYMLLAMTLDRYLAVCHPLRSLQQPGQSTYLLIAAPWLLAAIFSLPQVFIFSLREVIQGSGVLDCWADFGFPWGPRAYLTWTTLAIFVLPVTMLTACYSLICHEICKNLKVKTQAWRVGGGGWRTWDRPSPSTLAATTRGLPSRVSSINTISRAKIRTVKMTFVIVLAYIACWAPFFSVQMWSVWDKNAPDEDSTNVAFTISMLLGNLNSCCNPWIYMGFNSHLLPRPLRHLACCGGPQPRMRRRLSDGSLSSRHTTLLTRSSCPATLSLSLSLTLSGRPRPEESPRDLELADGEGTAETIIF

c1ccc(-c2nc(NC3CCCC3)c3ccccc3n2)cc1
IC50 [1]: 10 µM (active) | IC50 [2]: > 80 µM (inactive) | IC50 [3]: 21.1 µM (inactive)

Cc1ccc(C(=O)N2CCN(c3ccccc3)CC2)cc1C
IC50 [4]: > 100 µM (active)

O=C1CC(SCc2nc3ccccc3[nH]2)C(=O)N1c1cccc(Cl)c1 (stereo unspecified)
IC50 [5]: 2.6 µM (active) | IC50 [6]: 3.81 µM (active) | IC50 [7]: 65 µM (inactive) | IC50 [8]: > 83.3 µM (inactive)

COC(=O)COc1ccc(S(=O)(=O)NCc2ccncc2)cc1
AC50 [9]: 20.7 µM (active) | AC50 [10]: > 70 µM (inactive) | AC50 [11]: > 70 µM (inactive)

CCOC(=O)C1CCCC12Nc1cccc3cccc(c13)N2 (stereo unspecified)
IC50 [12]: > 100 µM (active)

COc1ccc(C#Cc2ccc([C@@H]3[C@H](CO)N4CCCCN(C(=O)Nc5ccccc5)C[C@@H]34)cc2)cc1
AC50 [13]: 0.405 µM (active) | AC50 [14]: 7.42 µM (active) | AC50 [15]: 9.62 µM (active) | AC50 [16]: 7.77 µM (active)

c1ccc(-c2nnc(SCC3CC3)o2)cc1
IC90 [17]: 2 µM (active) | IC90 [18]: 2 µM (active)

COc1ccccc1N(CC1CC1)C(=O)N1CCN(c2ccccc2C)CC1
IC50 [19]: 12.3 µM (inactive) | IC50 [20]: 0.292 µM (active) | IC50 (Vasopressin V1b receptor): 17.9 µM (inactive) | IC50 (Vasopressin V2 receptor): 12.3 µM (inactive)

CC/N=c1\scc(C)n1/N=C/c1ccc(O)c(O)c1O
EC50 [21]: > 150 µM (inactive) | IC50 [22]: 12 µM (active) | CC50 [23]: 29.6 µM (active) | IC50 [24]: > 96.6 µM (inactive) | IC50 (Genome polyprotein): 21.4 µM (active) | IC50 [25]: 57.4 µM (inactive) | IC50 (Protein Tat): 54.4 µM (inconclusive) | EC50 [26]: > 38 µM (not active) | IC50 (Leucine aminopeptidase): 82.3 µM (active) | CC50 (Vero): > 40 µM (active)

C[C@@H]1CN([C@H](C)CO)C(=O)c2cc(N(C)C)ccc2O[C@@H](C)CCCCO[C@@H]1CN(C)S(=O)(=O)c1ccc(F)cc1
AC50 [27]: 12.1 µM (active)

Cc1ccc(CSCC(=O)c2cc(C)n(-c3ccc(OC(F)F)cc3)c2C)cc1
EC50 [28]: 3.16 µM (active)

COc1ccc(C2=C(NC(=O)c3cccc(Cl)c3)C(=O)c3ccccc3C2=O)cc1
AC50 [29]: 18.2 µM (active) | AC50 [30]: 24.1 µM (active)
